# Data from patent US7776873B2, “Method for treating damage to gastric mucosa” (Yuhan Corporation, priority 2005, dated 2010).
# What was measured:
# [1] = tested on: human gastric epithelial (AGS) cells infected with H. pylori (ATCC 43504); assay: Incidence of H. pylori-induced cell death (MTT assay-1); assay type: cell-based; details: 50 uM pretreatment for 16 hours, then 48-hour H. pylori infection, FIG. 1
# Experimental: In order to determine cytoprotective properties of revaprazan against H. pylori infection, gastric mucosal cells were pretreated with revaprazan and rebamipide prior to H. pylori infection, and the incidence of cell death was measured. Rebamipide, known to have cytoprotective properties, was used as a control drug.
# The human gastric epithelial (AGS, KCLB 21739) cells were seeded onto 96-well plate at 5×10^4 cells/ml and cultured in RPMI 1640 (Gibco BRL, Grand Island, N.Y., U.S.A.), supplemented with 100 units/mL penicillin, 100 ug/mL streptomycin, and 10% FBS (Fetal Bovine Serum). Revaprazan and rebamipide, dissolved in sterilized water, were added to AGS cells to reach a final concentration of 50 uM and the cells were incubated at 37° C. for 16 hours. To remove RPMI 1640 media, the plate was centrifuged at 24° C., 3000 rpm for 5 minutes and washed three times with PBS (137 mM NaCl, 2.7 mM KCl, 10 mM Na2HPO4, and 2 mM KH2PO4). For inoculation, H. pylori (ATCC 43504) cultures were resuspended in PBS and cocultured with AGS cells at a final concentration of 5×10^8 CFU/ml. After 48 hours of incubation at 37° C., the culture was centrifuged at 24° C., 3000 rpm for 5 minutes to remove the culture medium, i.e., RPMI 1640, and then total viable cell numbers were assessed by MTT (3-[4,5-dimethylthiazol-2-yl]-2,5-diphenyl tetrazolim bromide) assay method. 1 mg/ml of an MTT solution prepared by dissolving MTT (Amresco, Ohio, U.S.A.) in PBS (137 mM NaCl, 2.7 mM KCl, 10 mM Na2HPO4, and 2 mM KH2PO4) was added to each well (50 μl/well), followed by incubation at 37° C. for 4 hours. The supernatant was then removed by centrifugation at 24° C., 3000 rpm for 5 minutes and the formazan grains formed by the viable cells were dissolved in 99.5% dimethyl sulfoxide (DMSO) (Kanto, Tokyo, Japan) (50 μl/well), and the optical intensity was measured at 540 nm using an ELISA reader (TECAN, Maennedorf, Switzerland).
# [2] = tested on: indomethacin-induced gastric mucosal lesions; assay: Preventive effect on NSAID-induced gastropathy; assay type: in vivo, Sprague Dawley male rats; details: rats, oro-gastric pretreatment (revaprazan 5, 10 mg/kg; rebamipide 30 mg/kg; omeprazole 5 mg/kg) prior to indomethacin 40 mg/kg for 12 hrs, FIG. 8
# Experimental: Six-week old specific-pathogen-free (SPF) Sprague Dawley male rats (Charles River, Tokyo, Japan) were used for experiments. The rats were fed a sterilized commercial pellet diet (Biogenomics Co., Seoul, Korea), given sterile water ad libitum, and housed in air-conditioned biohazard room with a 12-h light:12-h dark cycle. The rats were food-deprived 24 hours, and then administered with 5, 10 mg/kg revaprazan, 30 mg/kg rebamipide and 5 mg/kg omeprazole suspended in 0.5% CMC (carboxymethylcellulose) via oro-gastric tube prior to exposure to indomethacin (40 mg/kg for 12 hrs). Phosphate-buffered saline was perfused into the gastric lumen of the rats to swell the stomachs. Then, the stomachs were opened by an incision along the greater curvature, and the total area of the gastric mucosal lesions was calculated to obtain the average size of the lesions.
# [3] = tested on: rat gastric mucosal (RGM-1) cells; assay: Incidence of ethanol-induced cell death (MTT assay-2); assay type: cell-based; details: 50 uM pretreatment for 16 hours, then 200 mM ethanol for 16 hours, FIG. 2
# Experimental: The rat gastric mucosal (RGM-1, RIKEN cell bank, Japan) cells were seeded onto 96-well plate at 5×10^4 cells/ml and cultured in DMEM-F12 (Gibco BRL, Grand Island, N.Y., U.S.A.), supplemented with 100 units/mL penicillin, 100 ug/mL streptomycin, and 10% FBS (Fetal Bovine Serum). […] To remove DMEM-F12 media, the plate was centrifuged at 24° C., 3000 rpm for 5 minutes and washed three times with PBS (137 mM NaCl, 2.7 mM KCl, 10 mM Na2HPO4, and 2 mM KH2PO4). Then, ethanol-containing media (200 mM ethanol-containing DMEM-F12, supplemented with 100 units/mL penicillin, 100 ug/mL streptomycin, and 10% FBS) was added to the cells, and the cells were cultured at 37° C. for 16 hours. After the incubation, the culture was centrifuged at 24° C., 3000 rpm for 5 minutes to remove the culture medium and then total viable cell numbers were assessed by MTT (3-[4,5-dimethylthiazol-2-yl]-2,5-diphenyl tetrazolim bromide) assay method. 1 mg/ml of an MTT solution prepared by dissolving MTT (Amresco, Ohio, U.S.A.) in PBS (137 mM NaCl, 2.7 mM KCl, 10 mM Na2HPO4, and 2 mM KH2PO4) was added to each well (50 μl/well), followed by incubation at 37° C. for 4 hours. The supernatant was then removed by centrifugation at 24° C., 3000 rpm for 5 minutes and the formazan grains formed by the viable cells were dissolved in 99.5% dimethylsulfoxide (DMSO) (Kanto, Tokyo, Japan) (50 μl/well), and the optical intensity was measured at 540 nm using an ELISA reader (TECAN, Maennedorf, Switzerland).
smiles,measurement,setting,value
"O=C(NC(Cc1cc(=O)[nH]c2ccccc12)C(=O)O)c1ccc(Cl)cc1 (stereo not drawn) [rebamipide, reference compound]",gastric mucosal cytotoxicity by H. pylori infection,[1],significantly reduced
same,hemorrhagic gastric mucosal lesions after pretreatment,[2],hemorrhagic lesions are observed
same,ethanol-induced gastric mucosal cytotoxicity,[3],significantly reduced
